This note sets out measurements from the Deep4Chem optical property database.

A short description of the data set: solvent given as SMILES.

For the compound `Cc1cc(C)c(B(c2ccccc2N(c2ccccc2)c2ccccc2)c2c(C)cc(C)cc2C)c(C)c1`, the emission maximum by setting is: (in CC(C)=O) 532.95 nm; (in Cc1ccccc1) 498 nm; (in ClCCl) 518.5 nm.
On to `CC1(C)c2ccccc2N(c2ccc(-c3cccc(C#N)c3)cc2)c2ccccc21`, for which the emission maximum by setting is: (in Cc1ccccc1) 431 nm; (in N#Cc1ccc2c(c1)c1ccccc1n2-c1cccc(-n2c3ccccc3c3ccccc32)c1) 436 nm.
`COc1ccc(C2=C(c3ccc(OC)cc3)C(C)(C)c3cc(-c4ccccc4)ccc32)cc1` had an emission maximum (in C1CCCCC1) of 417 nm.
In turn, `CCCCCCc1cc2c(s1)-c1sc(CCCCCC)cc1P(c1ccccc1)(c1ccccc1)=[O+][B-]2(c1c(C)cc(C)cc1C)c1c(C)cc(C)cc1C` registered an emission maximum (in C1CCOC1) of 536 nm.
For the compound `CC(=O)[B-]1(C(C)=O)OC(c2ccccc2)=CC(c2ccc3ccccc3c2)=[O+]1`, the emission maximum is, setting by setting: (in CC#N) 510 nm; (in ClC(Cl)(Cl)Cl) 419 nm.
As to `CON(OC)c1cc2c3cc(-c4c(C)cc(C)cc4C)cc4c5cc(-c6c(C)cc(C)cc6C)cc6c7cc(B(c8c(C)cc(C)cc8C)c8c(C)cc(C)cc8C)cc8c9cc(-c%10c(C)cc(C)cc%10C)cc%10c%11cc(-c%12c(C)cc(C)cc%12C)cc%12c(c1)c2c1c(c43)c(c65)c(c78)c(c9%10)c1c%11%12`, the emission maximum is on record as 591 nm (in C1CCOC1); 615 nm (in CC(C)=O); 490 nm (in CCCCCC); 510 nm (in Cc1ccccc1); 545 nm (in ClC(Cl)Cl); 585 nm (in ClCCl).
As for `COc1cc(N(c2ccccc2)c2ccc(C=C(C#N)C#N)c(OC)c2)ccc1C=C(C#N)C#N`, the emission maximum is, setting by setting: (in C1COCCO1) 520 nm; (in CC#N) 571 nm; (in CC(C)=O) 562 nm; (in CCOC(C)=O) 532 nm; (in CN(C)C=O) 576 nm; (in CO) 558 nm. Also, the emission maximum reads like this: (in Cc1ccccc1) 500 nm; (in ClC(Cl)Cl) 524 nm; (in ClCCl) 534 nm.
Under “in ClC(Cl)Cl”, `COc1ccc(-c2c(-c3ccc(C)cc3)c3n(c2-c2ccc(C)cc2)[B-](F)(F)[N+]2=C(c4ccc(C)cc4)C(/C=C/C(=O)OC4CC[C@@]5(C)C(=CC[C@H]6[C@@H]7CC[C@H]([C@H](C)CCCC(C)C)[C@@]7(C)CC[C@@H]65)C4)=C(c4ccc(C)cc4)C2=N3)cc1` (stereo partly drawn) yielded an emission maximum of 702 nm.
`COc1ccc(N2c3sc4ccccc4c3Sc3c2sc2ccccc32)cc1`: the emission maximum (in ClCCl) is 549 nm.
As for `C(#Cc1ccccc1)C(C#Cc1ccccc1)=Cc1ccc2cc(C=C(C#Cc3ccccc3)C#Cc3ccccc3)ccc2c1`, where the note is “in ClC(Cl)Cl”, the emission maximum is 473 nm.
As to `C=CCNS(=O)(=O)c1ccc2c(c1)C(=O)/C(=C1\Sc3ccc(S(=O)(=O)NCC=C)cc3C1=O)S2`, the emission maximum (in CN(C)C=O) worked out at 604 nm and the emission maximum (in CS(C)=O) was 625 nm.
Consider `COc1nc(Nc2ccc3c4cccc5cccc(c6cccc2c63)c54)nc(OC)n1`, for which the emission maximum (in C1COCCO1) came to 478 nm, the emission maximum (in CC#N) is reported as 479 nm, the emission maximum (in CCCCOCCCC) worked out at 477 nm and the emission maximum (in CCOC(C)=O) is recorded as 477 nm.
